Reference: ChEMBL document CHEMBL1201862, “PubChem BioAssay data set” (2004)
Calls of active or inactive are those of the source.

Columns and labels:
[1] = target: T1, Dual specificity protein phosphatase 3 (Homo sapiens, UniProt P51452); test: VHR1 phosphatase inhibitors, primary screen, biochemical, absorbance, uHTS (AID 1654)
[2] = target: T1, Dual specificity protein phosphatase 3; test: VHR1 phosphatase inhibitors, biochemical (AID 1878)
[3] = target: T2, Zinc finger protein mex-5 (Caenorhabditis elegans, UniProt Q9XUB2); test: potency of MEX-5 RNA-binding blockers – biochemical, C. elegans, fluorescence polarization, dose response (AID 1960)
T2 sequence (Q9XUB2 whole entry): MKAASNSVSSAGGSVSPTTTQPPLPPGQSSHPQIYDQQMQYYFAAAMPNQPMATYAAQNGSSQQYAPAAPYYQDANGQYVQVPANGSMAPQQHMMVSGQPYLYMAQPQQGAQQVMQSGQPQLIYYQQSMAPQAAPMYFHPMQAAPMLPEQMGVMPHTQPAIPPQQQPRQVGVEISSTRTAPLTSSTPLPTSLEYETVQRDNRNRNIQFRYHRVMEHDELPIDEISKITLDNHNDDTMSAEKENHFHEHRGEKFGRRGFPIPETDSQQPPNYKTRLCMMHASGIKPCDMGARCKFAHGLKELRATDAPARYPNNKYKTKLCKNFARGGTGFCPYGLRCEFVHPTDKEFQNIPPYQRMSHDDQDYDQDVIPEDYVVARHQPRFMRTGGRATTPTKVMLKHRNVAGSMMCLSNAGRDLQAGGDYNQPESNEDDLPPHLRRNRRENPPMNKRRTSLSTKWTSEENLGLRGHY

[4] = target: T3, Carboxy-terminal domain RNA polymerase II polypeptide A small phosphatase 1 (Homo sapiens, UniProt Q9GZU7); test: CTDSP1 inhibitors, concentration-response, biochemical, absorbance readout, ultra-high-throughput screen actives (AID 540297); format: functional
T3 sequence (Q9GZU7 whole entry): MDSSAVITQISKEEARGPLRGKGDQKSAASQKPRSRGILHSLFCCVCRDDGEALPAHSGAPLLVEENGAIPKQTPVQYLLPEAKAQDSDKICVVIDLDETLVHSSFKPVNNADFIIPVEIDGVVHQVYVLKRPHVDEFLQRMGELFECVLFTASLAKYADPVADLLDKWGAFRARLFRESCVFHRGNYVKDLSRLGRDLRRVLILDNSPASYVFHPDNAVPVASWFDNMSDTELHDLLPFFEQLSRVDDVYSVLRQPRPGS

[5] = target: T4, Dual specificity protein phosphatase 6 (Rattus norvegicus, UniProt Q64346); test: inhibition of rat DUSP6 enzyme activity – biochemical, in vitro, primary screen (AID 425)
T4 sequence (Q64346 whole entry): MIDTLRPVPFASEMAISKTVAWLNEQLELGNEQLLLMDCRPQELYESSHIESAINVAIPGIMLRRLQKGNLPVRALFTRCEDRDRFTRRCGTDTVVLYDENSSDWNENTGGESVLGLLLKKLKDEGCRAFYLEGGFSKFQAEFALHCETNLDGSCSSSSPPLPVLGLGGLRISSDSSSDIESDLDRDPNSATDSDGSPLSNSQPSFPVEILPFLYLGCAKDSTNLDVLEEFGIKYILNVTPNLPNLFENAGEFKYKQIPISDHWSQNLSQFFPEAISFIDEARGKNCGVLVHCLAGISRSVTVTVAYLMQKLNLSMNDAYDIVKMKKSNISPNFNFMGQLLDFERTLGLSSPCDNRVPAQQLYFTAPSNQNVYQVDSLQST

[6] = target: T5, RNA-binding protein pos-1 (Caenorhabditis elegans, UniProt G5EF15); test: disruptors of C. elegans POS-1 RNA interaction – biochemical, fluorescence polarization, dose response (AID 1964);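 note: purified POS-1 fused to maltose binding protein made in E. coli; potency of compounds blocking POS-1 binding to fluorescent RNA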
T5 sequence (G5EF15 whole entry): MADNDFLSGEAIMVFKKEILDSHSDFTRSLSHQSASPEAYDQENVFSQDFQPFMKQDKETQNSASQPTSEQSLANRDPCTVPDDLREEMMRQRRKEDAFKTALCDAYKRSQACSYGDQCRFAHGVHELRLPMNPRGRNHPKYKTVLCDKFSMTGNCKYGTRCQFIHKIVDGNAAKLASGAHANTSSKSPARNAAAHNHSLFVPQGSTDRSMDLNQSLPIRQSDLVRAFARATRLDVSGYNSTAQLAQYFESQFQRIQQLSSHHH

[7] = toxicity toward cultured mammalian cells – cell-based, plate reader, cherry-pick samples, cytotoxicity control, dose response (AID 504397); format: functional
CAAX prenyl protease 2 = target: T6, CAAX prenyl protease 2 (Saccharomyces cerevisiae S288c, UniProt Q03530); format: biochemical
T6 sequence (Q03530 whole entry): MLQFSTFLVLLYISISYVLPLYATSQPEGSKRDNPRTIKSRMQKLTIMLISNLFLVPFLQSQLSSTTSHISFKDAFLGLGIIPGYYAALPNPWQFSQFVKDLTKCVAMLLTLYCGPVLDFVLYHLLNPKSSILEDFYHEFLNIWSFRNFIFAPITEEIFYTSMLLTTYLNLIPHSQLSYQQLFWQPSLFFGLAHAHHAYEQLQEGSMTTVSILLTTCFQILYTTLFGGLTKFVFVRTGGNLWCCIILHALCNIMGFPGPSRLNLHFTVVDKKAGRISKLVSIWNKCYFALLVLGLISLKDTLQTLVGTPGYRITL

[8] = target: T7, Tyrosine-protein phosphatase non-receptor type 7 (Homo sapiens, UniProt P35236); format: functional
T7 sequence (P35236 whole entry): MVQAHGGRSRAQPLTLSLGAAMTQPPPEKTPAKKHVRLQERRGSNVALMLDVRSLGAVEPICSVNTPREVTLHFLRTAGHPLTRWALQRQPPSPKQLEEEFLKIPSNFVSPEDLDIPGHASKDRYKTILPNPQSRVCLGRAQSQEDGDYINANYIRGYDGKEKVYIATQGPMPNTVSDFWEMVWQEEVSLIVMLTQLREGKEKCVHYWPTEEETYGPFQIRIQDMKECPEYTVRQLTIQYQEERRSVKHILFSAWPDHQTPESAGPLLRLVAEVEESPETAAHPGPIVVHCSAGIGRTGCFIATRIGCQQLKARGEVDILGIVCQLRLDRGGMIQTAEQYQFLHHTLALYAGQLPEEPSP

[9] = target: T8, Tyrosine-protein phosphatase non-receptor type 22 (Homo sapiens, UniProt Q9Y2R2); format: functional
T8 sequence (Q9Y2R2 whole entry): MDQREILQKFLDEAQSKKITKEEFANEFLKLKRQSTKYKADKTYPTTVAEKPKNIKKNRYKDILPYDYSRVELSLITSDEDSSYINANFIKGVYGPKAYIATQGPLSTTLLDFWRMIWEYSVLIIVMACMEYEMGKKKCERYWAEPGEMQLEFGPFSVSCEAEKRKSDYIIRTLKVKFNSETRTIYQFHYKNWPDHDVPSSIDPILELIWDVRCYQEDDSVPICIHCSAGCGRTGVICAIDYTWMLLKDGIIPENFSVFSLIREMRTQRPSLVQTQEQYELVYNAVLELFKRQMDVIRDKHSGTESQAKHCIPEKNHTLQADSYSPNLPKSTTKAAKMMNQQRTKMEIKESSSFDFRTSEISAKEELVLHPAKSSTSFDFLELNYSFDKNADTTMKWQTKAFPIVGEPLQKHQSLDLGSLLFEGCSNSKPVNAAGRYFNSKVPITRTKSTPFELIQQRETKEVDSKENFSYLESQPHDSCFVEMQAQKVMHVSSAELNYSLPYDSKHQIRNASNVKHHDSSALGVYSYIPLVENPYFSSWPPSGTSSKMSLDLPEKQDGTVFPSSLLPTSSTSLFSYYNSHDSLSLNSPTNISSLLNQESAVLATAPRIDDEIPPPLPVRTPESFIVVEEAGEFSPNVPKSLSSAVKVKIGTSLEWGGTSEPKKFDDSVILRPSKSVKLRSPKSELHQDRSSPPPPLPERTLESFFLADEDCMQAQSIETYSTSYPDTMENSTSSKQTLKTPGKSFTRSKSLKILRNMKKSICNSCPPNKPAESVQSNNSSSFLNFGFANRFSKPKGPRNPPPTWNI

[10] = target: T8, Tyrosine-protein phosphatase non-receptor type 22; format: functional; remark: listed apart in the source
SUMO-activating enzyme = SUMO-activating enzyme (Homo sapiens, UniProt Q9UBT2); test: blockers of UBC9-mediated SUMO conjugation – biochemical, AlphaScreen, SUMOylation inhibitor project, confirmation (AID 2018); format: functional
SUMO-activating enzyme, sequence (Q9UBE0 whole entry): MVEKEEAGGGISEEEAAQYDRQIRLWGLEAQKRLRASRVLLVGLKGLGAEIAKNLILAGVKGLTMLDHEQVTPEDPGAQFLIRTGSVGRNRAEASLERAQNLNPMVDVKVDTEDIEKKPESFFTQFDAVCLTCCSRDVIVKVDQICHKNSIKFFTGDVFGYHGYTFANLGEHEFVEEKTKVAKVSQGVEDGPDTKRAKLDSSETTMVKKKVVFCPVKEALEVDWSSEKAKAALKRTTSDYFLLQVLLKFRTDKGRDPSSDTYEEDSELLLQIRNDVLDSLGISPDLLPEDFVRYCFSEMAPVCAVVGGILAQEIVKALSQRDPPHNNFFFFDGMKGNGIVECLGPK
SUMO-activating enzyme, sequence (Q9UBT2 whole entry): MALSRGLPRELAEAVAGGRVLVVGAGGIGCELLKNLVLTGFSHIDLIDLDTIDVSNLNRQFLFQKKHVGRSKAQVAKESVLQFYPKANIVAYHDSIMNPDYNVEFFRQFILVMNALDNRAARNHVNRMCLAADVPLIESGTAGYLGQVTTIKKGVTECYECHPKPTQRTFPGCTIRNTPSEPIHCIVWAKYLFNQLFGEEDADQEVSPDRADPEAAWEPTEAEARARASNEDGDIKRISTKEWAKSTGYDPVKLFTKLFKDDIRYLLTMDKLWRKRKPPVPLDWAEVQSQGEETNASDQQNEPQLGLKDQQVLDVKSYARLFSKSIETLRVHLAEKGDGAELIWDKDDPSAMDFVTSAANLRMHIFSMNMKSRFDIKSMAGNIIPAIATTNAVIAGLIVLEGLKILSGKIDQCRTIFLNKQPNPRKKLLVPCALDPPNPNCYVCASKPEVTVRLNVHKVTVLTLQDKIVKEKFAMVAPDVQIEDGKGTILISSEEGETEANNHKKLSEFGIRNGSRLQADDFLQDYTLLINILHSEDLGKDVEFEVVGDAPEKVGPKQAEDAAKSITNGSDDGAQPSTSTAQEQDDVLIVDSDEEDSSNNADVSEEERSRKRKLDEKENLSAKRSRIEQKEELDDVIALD

[11] = target: T9, Corticotropin-releasing factor receptor 2/Corticotropin-releasing factor-binding protein (Homo sapiens, UniProt P24387+Q13324); test: activators of CRF receptor 2 with binding protein – uHTS hits, confirmation (AID 602473); format: functional; details: read-out: EC50_Mean
T9 sequence (Q13324 whole entry): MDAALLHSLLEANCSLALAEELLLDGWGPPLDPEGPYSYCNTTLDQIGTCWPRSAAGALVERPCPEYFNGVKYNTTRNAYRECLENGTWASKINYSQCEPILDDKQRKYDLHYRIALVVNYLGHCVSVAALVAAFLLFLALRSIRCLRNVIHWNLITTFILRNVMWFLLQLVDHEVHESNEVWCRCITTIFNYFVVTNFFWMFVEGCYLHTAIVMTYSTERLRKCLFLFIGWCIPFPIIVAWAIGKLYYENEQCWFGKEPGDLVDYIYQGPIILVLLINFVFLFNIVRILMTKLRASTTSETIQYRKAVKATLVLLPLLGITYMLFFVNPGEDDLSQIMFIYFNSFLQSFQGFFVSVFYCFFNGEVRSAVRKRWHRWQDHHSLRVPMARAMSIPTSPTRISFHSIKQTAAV
T9 sequence (P24387 whole entry): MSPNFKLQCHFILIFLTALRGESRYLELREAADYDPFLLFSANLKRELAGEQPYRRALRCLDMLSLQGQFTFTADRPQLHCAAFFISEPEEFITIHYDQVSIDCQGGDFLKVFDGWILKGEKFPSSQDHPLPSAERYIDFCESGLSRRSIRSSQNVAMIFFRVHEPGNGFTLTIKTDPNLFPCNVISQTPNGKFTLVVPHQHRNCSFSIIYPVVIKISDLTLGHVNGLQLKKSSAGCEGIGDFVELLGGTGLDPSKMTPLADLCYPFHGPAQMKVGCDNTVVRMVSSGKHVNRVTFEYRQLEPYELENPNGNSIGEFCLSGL

[12] = target: T10, Runt-related transcription factor 1/Core-binding factor subunit beta (Homo sapiens, UniProt Q01196+Q13951); test: disruptors of Runt domain/CBFb-SMMHC interaction – biochemical, FRET, Cerulean-Runt, Venus-CBFb-SMMHC, uHTS, […] (AID 1434); format: protein assay
T10 sequence (Q01196 whole entry, the tested form may be a part): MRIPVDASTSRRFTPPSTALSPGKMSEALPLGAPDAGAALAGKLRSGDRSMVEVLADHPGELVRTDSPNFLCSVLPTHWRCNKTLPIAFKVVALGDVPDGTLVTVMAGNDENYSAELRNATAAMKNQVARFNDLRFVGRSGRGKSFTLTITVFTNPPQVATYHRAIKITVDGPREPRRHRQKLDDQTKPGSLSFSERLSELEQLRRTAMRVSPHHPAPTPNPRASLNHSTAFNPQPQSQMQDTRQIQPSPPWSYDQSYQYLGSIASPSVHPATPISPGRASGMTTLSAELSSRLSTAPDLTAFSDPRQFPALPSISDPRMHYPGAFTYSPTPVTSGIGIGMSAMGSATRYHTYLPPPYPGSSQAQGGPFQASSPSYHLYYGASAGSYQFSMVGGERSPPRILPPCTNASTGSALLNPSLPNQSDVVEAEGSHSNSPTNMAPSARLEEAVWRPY
T10 sequence (Q13951 whole entry, the tested form may be a part): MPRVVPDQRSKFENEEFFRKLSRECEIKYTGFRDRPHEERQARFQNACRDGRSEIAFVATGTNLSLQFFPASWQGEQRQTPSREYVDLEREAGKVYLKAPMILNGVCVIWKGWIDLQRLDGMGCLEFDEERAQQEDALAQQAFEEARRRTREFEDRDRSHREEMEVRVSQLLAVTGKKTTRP

[13] = target: T10, Runt-related transcription factor 1/Core-binding factor subunit beta; test: Runt domain/CBFb-SMMHC interaction disruptors – biochemical, TR-FRET (AID 1438); format: protein assay
[14] = target: T7, Tyrosine-protein phosphatase non-receptor type 7; test: inhibition of hematopoietic tyrosine phosphatase HePTP – biochemical, set 2, SAR follow-up (AID 449736); format: functional
Cannabinoid receptor 1 [15] = target: T11, Cannabinoid receptor 1 (Homo sapiens, UniProt P21554); test: SAR analysis of antagonists of the Cannabinoid Receptor 1 using an Image-Based Assay - Set 4. [Related pubchem assays (depositor defined):AID2013, AID2026]; format: functional
T11 sequence (P21554 whole entry): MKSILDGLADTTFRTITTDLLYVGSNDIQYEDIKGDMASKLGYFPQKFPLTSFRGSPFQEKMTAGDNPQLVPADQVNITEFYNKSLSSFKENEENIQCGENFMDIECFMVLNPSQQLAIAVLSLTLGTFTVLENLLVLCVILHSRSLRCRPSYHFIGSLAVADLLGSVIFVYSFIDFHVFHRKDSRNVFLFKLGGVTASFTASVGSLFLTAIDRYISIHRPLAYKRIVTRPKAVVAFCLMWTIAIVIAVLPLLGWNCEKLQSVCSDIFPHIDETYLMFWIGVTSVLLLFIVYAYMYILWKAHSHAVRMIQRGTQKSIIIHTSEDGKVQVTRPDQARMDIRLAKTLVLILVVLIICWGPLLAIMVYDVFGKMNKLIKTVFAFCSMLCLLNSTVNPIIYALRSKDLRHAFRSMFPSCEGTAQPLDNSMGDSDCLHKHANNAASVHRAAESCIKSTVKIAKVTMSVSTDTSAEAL

[16] = target: T12, G-protein coupled receptor 35 (Homo sapiens, UniProt Q9HC97); test: SAR analysis of Agonists of the GPR35 Receptor using an Image-Based Assay - Set 4. [Related pubchem assays (depositor defined):AID2013, AID2026]; format: functional
T12 sequence (Q9HC97 whole entry): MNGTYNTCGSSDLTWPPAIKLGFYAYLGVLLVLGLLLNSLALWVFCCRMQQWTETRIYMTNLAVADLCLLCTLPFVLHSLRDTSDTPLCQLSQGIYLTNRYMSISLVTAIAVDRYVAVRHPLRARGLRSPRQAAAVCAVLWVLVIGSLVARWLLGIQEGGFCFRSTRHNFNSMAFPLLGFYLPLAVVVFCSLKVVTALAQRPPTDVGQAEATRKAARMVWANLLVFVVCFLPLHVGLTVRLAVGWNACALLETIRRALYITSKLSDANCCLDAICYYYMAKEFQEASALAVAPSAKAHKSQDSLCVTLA

Cannabinoid receptor 1 [17] = target: T11, Cannabinoid receptor 1; test: SAR analysis of agonists of the Cannabinoid Receptor 1 using an Image-Based Assay - Set 4. [Related pubchem assays (depositor defined):AID2013, AID2026]; format: functional
Cannabinoid receptor 2 [18] = target: T13, Cannabinoid receptor 2 (Homo sapiens, UniProt P34972); test: SAR analysis of antagonists of the Cannabinoid Receptor 2 using an Image-Based Assay - Set 3. [Related pubchem assays (depositor defined):AID2013, AID2026]; format: functional
T13 sequence (P34972 whole entry): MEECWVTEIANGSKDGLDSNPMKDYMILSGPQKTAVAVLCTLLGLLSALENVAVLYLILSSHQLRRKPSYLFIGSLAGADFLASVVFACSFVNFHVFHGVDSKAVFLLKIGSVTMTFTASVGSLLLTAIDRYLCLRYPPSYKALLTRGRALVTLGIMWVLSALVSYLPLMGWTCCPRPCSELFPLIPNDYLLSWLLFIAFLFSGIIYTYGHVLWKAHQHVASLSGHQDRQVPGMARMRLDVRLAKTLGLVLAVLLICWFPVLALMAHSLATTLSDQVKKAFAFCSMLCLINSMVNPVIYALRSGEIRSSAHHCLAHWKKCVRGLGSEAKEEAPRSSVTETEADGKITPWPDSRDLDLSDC

[19] = target: T12, G-protein coupled receptor 35; test: SAR analysis of Antagonists of the GPR35 Receptor using an Image-Based Assay - Set 6. [Related pubchem assays (depositor defined):AID2013, AID2026]; format: functional
Cannabinoid receptor 2 [20] = target: T13, Cannabinoid receptor 2; test: SAR analysis of agonists of the Cannabinoid Receptor 2 using an Image-Based Assay - Set 3. [Related pubchem assays (depositor defined):AID2013, AID2026]; format: functional
[21] = target: G-protein coupled receptor 55 (Homo sapiens, UniProt Q9Y2T6); test: SAR Analysis of Selective Antagonists of GPR55 using an Image-Based Assay - Set 4. [Related pubchem assays (depositor defined):AID2013, AID2026]; format: functional;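 note: antagonism of response to 5 µM lysophosphatidylinositol agonist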
G-protein coupled receptor 55, sequence (Q9Y2T6 whole entry): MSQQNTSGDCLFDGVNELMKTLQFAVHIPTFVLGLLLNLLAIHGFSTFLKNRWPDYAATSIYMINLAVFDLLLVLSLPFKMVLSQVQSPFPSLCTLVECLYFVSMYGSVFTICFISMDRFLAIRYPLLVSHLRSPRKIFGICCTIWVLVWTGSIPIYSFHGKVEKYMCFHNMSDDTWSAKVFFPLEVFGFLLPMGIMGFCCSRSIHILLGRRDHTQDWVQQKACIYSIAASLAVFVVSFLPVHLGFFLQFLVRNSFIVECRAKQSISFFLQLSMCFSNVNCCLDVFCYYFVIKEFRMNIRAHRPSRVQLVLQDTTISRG

T1 sequence (P51452 whole entry): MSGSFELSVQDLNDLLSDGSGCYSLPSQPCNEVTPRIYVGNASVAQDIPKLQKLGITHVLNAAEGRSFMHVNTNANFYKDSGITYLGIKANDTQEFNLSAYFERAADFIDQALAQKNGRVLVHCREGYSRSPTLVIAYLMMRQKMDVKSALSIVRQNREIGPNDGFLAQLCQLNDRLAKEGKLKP

Cc1ccc(NC(=O)CN2C(=O)S/C(=C\c3cccn3-c3cccc(C(=O)O)c3)C2=O)cc1C
IC50 [1]: 6.14 µM (active)
IC50 [2]: 4.36 µM (active)
EC50 [3]: > 300 µM (not active)
IC50 [4]: 3.28 µM (active)
IC50 [5]: 17.2 µM (active)
EC50 [6]: > 300 µM (not active)

COc1ccc(-c2cc(C(=O)N3CCN(c4ccccc4)CC3)c3ccccc3n2)cc1
AC50 [7]: 57.4 µM (active)
AC50 (CAAX prenyl protease 2): 4.71 µM (active)

CCc1nc2cc([N+](=O)[O-])c([N+](=O)[O-])cc2[nH]1
IC50 [8]: > 79.4 µM (inactive)
IC50 [9]: > 79.4 µM (inactive)
IC50 [10]: > 79.4 µM (inactive)

O=C(Nc1nnc(-c2ccccc2)o1)c1nc2ccccc2s1
IC50 (SUMO-activating enzyme): 16.3 µM (active)
EC50 [11]: 7.07 µM (active)

C=CCOc1c(Br)cc(C2C3=C(CCCC3=O)N(C)C3=C2C(=O)CCC3)cc1OCC
IC50 [12]: 0.865 µM (active)
IC50 [13]: 41.2 µM (active)

Cc1cccc(NC(=S)Nc2ccc(S(N)(=O)=O)cc2)c1
IC50 [14]: > 100 µM (inactive)

Cc1nc(N2CCN(C(=O)C3CC3)CC2)c2c3c(sc2n1)CC(C)CC3 (stereo not drawn)
IC50 (Cannabinoid receptor 1 [15]): 17.9 µM (inactive)
EC50 [16]: > 32 µM (inactive)
EC50 (Cannabinoid receptor 1 [17]): > 32 µM (inactive)
IC50 (Cannabinoid receptor 2 [18]): > 32 µM (inactive)
IC50 [19]: > 32 µM (inactive)
EC50 (Cannabinoid receptor 2 [20]): > 32 µM (inactive)
IC50 [21]: 10.6 µM (inactive)
